Patent publication US8361968B2 (Takeda Pharmaceutical Company Limited, priority 2002, dated 2013)
Numbered stars: 1 amine (or outer) side, 2 acyl side, 3 side chain; on linkers, the order of the positions; unused ones are H or OH. Square brackets hold non-standard residues; d marks the D form. Ends that are not written are not given here. Peptide text beside a SMILES is read from it. * marks the point of attachment. X4 = CC(C)C[C@H](NCCN*)C(=O)N[C@@H](CCCNC(=N)N)C(=O)N[C@@H](Cc1ccccc1)C(N)=O; X10 = NC(=O)C[C@@H](C(=O)[*:2])N(C[C@@H](N)Cc1ccc(O)cc1)[*:1]; Butyryl(4-indol-3-yl) = O=C(CCCc1c[nH]c2ccccc12)*; X11 = O=C(CNC(=S)[C@H](Cc1ccccc1)N[*:1])[*:2]; Arg(Me) = CNC(=N)NCCC[C@H](N)C(=O)O; X3 = NC(=S)[C@H](Cc1ccccc1)N*; Boc = CC(C)(C)OC(=O)*; azaGly = NNC(=O)O

molecular target: T1, hOT7T175 (Homo sapiens, UniProt Q969F8, L364H); assay: hOT7T175 receptor binding activity: binding inhibition of Cy-5-labeled metastin (40-54) on hOT7T175-expressed CHO cells; parameters: expressed in transfected cells; host or cells: CHO cells; details: not given
Description: Assay for hOT7T175 Receptor Binding Activity
h0T7T175-Expressed CHO cells were cultured in MEM-cc medium (nucleic acid-free) containing 10% dialyzed serum. The medium was removed and the adherent cells were washed with PBS. Then, PBS containing 5 mM EDTA was added and the cells were scraped from a flask with a cell scraper. […] To each well of a 96-Well Black Clear Bottom Plate (Applied Biosystems, Inc.), 10 μL of assay buffer containing 1% dimethylsulfoxide was added to examine total binding, 10 μL of 10 μM non-labeled peptide (having the same amino acid sequence as that of the labeled one) solution diluted with assay buffer to examine non-specific binding, and 10 μL of a test compound diluted with assay buffer to examine the binding inhibition activity of the test compound, respectively. Furthermore, 90 μL each of the cell suspension was dispensed to each well. […] The specific binding is a value obtained by subtracting the non-specific binding from the total binding.

T1 sequence (Q969F8 whole entry L364H): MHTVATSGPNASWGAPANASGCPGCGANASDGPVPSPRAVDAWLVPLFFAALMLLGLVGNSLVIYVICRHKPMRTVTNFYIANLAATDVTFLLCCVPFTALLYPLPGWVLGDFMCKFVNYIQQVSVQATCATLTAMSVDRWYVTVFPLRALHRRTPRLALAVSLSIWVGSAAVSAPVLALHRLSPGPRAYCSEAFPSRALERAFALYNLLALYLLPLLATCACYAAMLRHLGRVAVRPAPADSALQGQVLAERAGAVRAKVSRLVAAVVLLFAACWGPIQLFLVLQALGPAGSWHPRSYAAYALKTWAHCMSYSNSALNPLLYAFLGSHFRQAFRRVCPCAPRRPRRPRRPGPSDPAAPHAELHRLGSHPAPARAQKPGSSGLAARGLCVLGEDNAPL

Compound | IC50 [nM]
CNC(=N)NCCC[C@H](NC(=O)[C@H](CC(C)C)NC(=O)NNC(=O)[C@H](Cc1ccccc1)NC(=O)[C@H](CO)NC(=O)[C@H](CC(N)=O)NC(=O)[C@@H]1CCCN1C(=O)[C@H](CC(N)=O)NC(=O)[C@H](N)Cc1ccc(O)cc1)C(=O)N[C@@H](Cc1ccccc1)C(N)=O [Compound No. 253, D-Tyr-Asn-Pro-Asn-Ser-Phe-AzaGly-Leu-Arg(Me)-Phe-NH2] (H-[dY]NPNSF[azaGly]L[Arg(Me)]F-NH2) | 27
CC(C)C[C@H](NC(=O)CNC(=O)[C@H](Cc1ccccc1)NC(=O)[C@H](CO)NC(=O)[C@H](CC(N)=O)NC(=O)[C@H](Cc1c[nH]c2ccccc12)NC(=O)[C@H](CC(N)=O)NC(=O)[C@H](C)N)C(=O)N[C@@H](CCCNC(=N)N)C(=O)N[C@@H](Cc1ccccc1)C(N)=O [Compound No. 72] (H-ANWNSFGLRF-NH2) | 540
CNC(=N)NCCC[C@H](NC(=O)[C@H](CC(C)C)NC(=O)NNC(=O)[C@H](Cc1ccccc1)NC(=O)[C@H](CO)NC(=O)[C@H](CC(N)=O)NC(=O)[C@H](CCCNC(=N)N)NC(C)=O)C(=O)N[C@@H](Cc1ccccc1)C(N)=O [Compound No. 275, Acetyl-Arg-Asn-Ser-Phe-AzaGly-Leu-Arg(Me)-Phe-NH2] (Ac-RNSF[azaGly]L[Arg(Me)]F-NH2) | 410
CNC(=N)NCCC[C@H](NC(=O)[C@H](CC(C)C)NC(=O)CNC(=O)[C@H](Cc1ccccc1)NC(=O)[C@H](CO)NC(=O)[C@H](CC(N)=O)NC(=O)[C@@H](Cc1c[nH]c2ccccc12)NC(=O)[C@H](N)CC(N)=O)C(=O)N[C@@H](Cc1ccccc1)C(N)=O [Compound No. 225, D-Asn-D-Trp-Asn-Ser-Phe-Gly-Leu-Arg(Me)-Phe-NH2] (H-[dN][dW]NSFGL[Arg(Me)]F-NH2) | 410

molecular target: T1, hOT7T175; assay: Intracellular Ca ion level-increasing activity using FLIPR in hOT7T175/CHO; format: cell-based; parameters: expressed in transfected cells; host or cells: CHO/dhfr- cells, obtained from ATCC; details: relative, Metastin (1-54) = 1

Compound | Specific Activity (intracellular Ca ion level-increasing activity)
Boc-Tyr-Asn-Trp-Phe-Gly-Leu-Arg-Phe-NH2 (Boc-YNWFGLRF-NH2; SMILES CC(C)C[C@H](NC(=O)CNC(=O)[C@H](Cc1ccccc1)NC(=O)[C@H](Cc1c[nH]c2ccccc12)NC(=O)[C@H](CC(N)=O)NC(=O)[C@H](Cc1ccc(O)cc1)NC(=O)OC(C)(C)C)C(=O)N[C@@H](CCCNC(=N)N)C(=O)N[C@@H](Cc1ccccc1)C(N)=O) [Compound No. 87] | 1
Tyr-Asn-Trp-Asn-Ser-Phe-Gly-Ala-Arg-Phe-NH2 (YNWNSFGARF-NH2) [Compound No. 45] | 1
CC(C)C[C@H](NC(=O)CNC(=O)[C@H](Cc1ccccc1)NC(=O)[C@H](CO)NC(=O)[C@H](CC(N)=O)NC(=O)[C@H](Cc1c[nH]c2ccccc12)NC(=O)[C@H](CC(N)=O)NC(=O)[C@@H](N)Cc1ccc(O)cc1)C(=O)N[C@@H](CCCNC(=N)N)C(=O)N[C@@H](Cc1ccccc1)C(N)=S [Compound No. 128] (H-YNWNSFGLR-X3) | 10
CC(C)C[C@H](NC(=O)CNC(=O)[C@H](Cc1ccccc1)NC(=O)[C@H](CO)NC(=O)[C@H](CC(N)=O)NC(=O)[C@H](Cc1c[nH]c2ccccc12)NC(=O)[C@H](CC(N)=O)NC(=O)[C@H](Cc1ccc(O)cc1)NC(=O)OCC1c2ccccc2-c2ccccc21)C(=O)N[C@@H](CCCNC(=N)N)C(=O)N[C@@H](Cc1ccccc1)C(N)=O [Compound No. 31] | 2
Tyr-Asn-Trp-Phe-Gly-Leu-Arg-Phe-NH2 (YNWFGLRF-NH2) [Compound No. 88] | 1
D-Tyr-Asn-Trp-Asn-Ser-Phe-Ala-Leu-Arg(Me)-Phe-NH2 ([dY]NWNSFAL[Arg(Me)]F-NH2; N-terminus assumed; SMILES CNC(=N)NCCC[C@H](NC(=O)[C@H](CC(C)C)NC(=O)[C@H](C)NC(=O)[C@H](Cc1ccccc1)NC(=O)[C@H](CO)NC(=O)[C@H](CC(N)=O)NC(=O)[C@H](Cc1c[nH]c2ccccc12)NC(=O)[C@H](CC(N)=O)NC(=O)[C@H](N)Cc1ccc(O)cc1)C(=O)N[C@@H](Cc1ccccc1)C(N)=O) [Compound No. 173] | 1

Continued, values first:

Specific Activity (intracellular Ca ion level-increasing activity) | Compound
1 | CC(C)C[C@H](NCCNC(=O)[C@H](Cc1ccccc1)NC(=O)[C@H](CO)NC(=O)[C@H](CC(N)=O)NC(=O)[C@H](Cc1c[nH]c2ccccc12)NC(=O)[C@H](CC(N)=O)NC(=O)[C@@H](N)Cc1ccc(O)cc1)C(=O)N[C@@H](CCCNC(=N)N)C(=O)N[C@@H](Cc1ccccc1)C(N)=O [Compound No. 261, Tyr-Asn-Trp-Asn-Ser-Phe-GlyΨ(CH2NH)Leu-Arg-Phe-NH2] (H-YNWNSF-X4; N-terminus assumed)
2 | CNC(=N)NCCC[C@H](NC(=O)[C@H](CC(C)C)NC(=O)NNC(=O)[C@H](Cc1ccccc1)NC(=O)[C@H](CO)NC(=O)[C@H](CC(N)=O)NC(=O)CCCc1c[nH]c2ccccc12)C(=O)N[C@@H](Cc1ccccc1)C(N)=O [Compound No. 267, 4-(3-Indolyl)butyryl-Asn-Ser-Phe-AzaGly-Leu-Arg(Me)-Phe-NH2] ({Butyryl(4-indol-3-yl)}-NSF[azaGly]L[Arg(Me)]F-NH2)
2 | CNC(=N)NCCC[C@H](NC(=O)[C@H](CC(C)C)NC(=O)NNC(=O)[C@H](Cc1ccccc1)NC(=O)[C@H](CO)NC(=O)[C@H](CC(N)=O)NC(=O)[C@H](Cc1c[nH]c2ccccc12)NC(=O)[C@@H](CO)NC(=O)[C@H](N)Cc1ccc(O)cc1)C(=O)N[C@@H](Cc1ccccc1)C(N)=O [Compound No. 287, D-Tyr-D-Ser-Trp-Asn-Ser-Phe-AzaGly-Leu-Arg(Me)-Phe-NH2] (H-[dY][dS]WNSF[azaGly]L[Arg(Me)]F-NH2)
10 | CC(C)C[C@H](NC(=O)CNC(=O)[C@H](Cc1ccccc1)NC(=O)[C@H](CO)NC(=O)[C@H](CC(N)=O)NC(=O)[C@H](Cc1c[nH]c2ccccc12)NC(=O)[C@H](CC(N)=O)NC[C@@H](N)Cc1ccc(O)cc1)C(=O)N[C@@H](CCCNC(=N)N)C(=O)N[C@@H](Cc1ccccc1)C(N)=O [Compound No. 294] (H-[X10]WNSFGLRF-NH2)
001 | CCCNC(=N)NCCC[C@H](NC(=O)[C@H](CC(C)C)NC(=O)CNC(=O)[C@H](Cc1ccccc1)NC(=O)[C@H](CO)NC(=O)[C@H](CC(N)=O)NC(=O)[C@H](Cc1c[nH]c2ccccc12)NC(=O)[C@H](CC(N)=O)NC(=O)[C@H](N)Cc1ccc(O)cc1)C(=O)N[C@@H](Cc1ccccc1)C(N)=O [Compound No. 193]
1 | CNC(=N)NCCC[C@H](NC(=O)[C@H](CC(C)C)NC(=O)NNC(=O)[C@H](Cc1ccccc1)NC(=O)[C@H](CO)NC(=O)[C@H](CC(N)=O)NC(=O)[C@H](Cc1ccccc1)NC(=O)[C@H](N)Cc1ccc(O)cc1)C(=O)N[C@@H](Cc1ccccc1)C(N)=O [Compound No. 254, D-Tyr-Phe-Asn-Ser-Phe-AzaGly-Leu-Arg(Me)-Phe-NH2] (H-[dY]FNSF[azaGly]L[Arg(Me)]F-NH2)
10 | D-Tyr-D-Pya(4)-Asn-Ser-Phe-AzaGly-Leu-Arg(Me)-Trp-NH2 [Compound No. 385]
5 | CNC(=N)NCCC[C@H](NC(=O)[C@H](CC(C)C)NC(=O)NNC(=O)[C@H](Cc1ccccc1)NC(=O)[C@H](CO)NC(=O)[C@H](CC(N)=O)NC(=O)[C@H](Cc1c[nH]c2ccccc12)NC(=O)[C@H](CC(N)=O)NC[C@@H](N)Cc1ccc(O)cc1)C(=O)N[C@@H](Cc1ccccc1)C(N)=O [Compound No. 299, TyrΨ(CH2NH)Asn-Trp-Asn-Ser-Phe-AzaGly-Leu-Arg(Me)-Phe-NH2] (H-[X10]WNSF[azaGly]L[Arg(Me)]F-NH2)
1 | CNC(=N)NCCC[C@H](NC(=O)[C@H](CC(C)C)NC(=O)CNC(=O)[C@H](Cc1ccccc1)NC(=O)[C@H](CO)NC(=O)[C@H](CC(N)=O)NC(=O)[C@@H](NC(=O)[C@H](CC(N)=O)NC(=O)[C@H](N)Cc1ccc(O)cc1)C(C)C)C(=O)N[C@@H](Cc1ccccc1)C(N)=O [Compound No. 229] (H-[dY]NVNSFGL[Arg(Me)]F-NH2)
1 | CNC(=N)NCCC[C@H](NC(=O)[C@H](CC(C)C)NC(=O)CNC(=O)[C@H](Cc1ccccc1)NC(=O)[C@H](CO)NC(=O)[C@H](CC(N)=O)NC(=O)[C@H](Cc1c[nH]c2ccccc12)NC(=O)[C@H](N)CC(N)=O)C(=O)N[C@@H](Cc1ccccc1)C(N)=O [Compound No. 216] (H-[dN]WNSFGL[Arg(Me)]F-NH2; N-terminus assumed)
3 | CC(C)C[C@H](NC(=O)CNC(=O)[C@H](Cc1ccccc1)NC(=O)[C@H](CO)NC(=O)[C@H](CC(N)=O)NC(=O)[C@H](Cc1c[nH]c2ccccc12)NC(=O)[C@H](CC(N)=O)NC(=O)[C@@H](N)Cc1ccc(O)cc1)C(=O)N[C@@H](CCNC(=N)N)C(=O)N[C@@H](Cc1ccccc1)C(N)=O [Compound No. 310]
5 | CC(C)C[C@H](NC(=O)CNC(=S)[C@H](Cc1ccccc1)NC(=O)[C@H](CO)NC(=O)[C@H](CC(N)=O)NC(=O)[C@H](Cc1c[nH]c2ccccc12)NC(=O)[C@H](CC(N)=O)NC(=O)[C@@H](N)Cc1ccc(O)cc1)C(=O)N[C@@H](CCCNC(=N)N)C(=O)N[C@@H](Cc1ccccc1)C(N)=O [Compound No. 166, Tyr-Asn-Trp-Asn-Ser-Phe Ψ(CSNH)Gly-Leu-Arg-Phe-NH2] (H-YNWNS[X11]LRF-NH2)
